Measured values taken from ChEMBL document CHEMBL1201861, “Genomics of Drug Sensitity in Cancer screening data, Wellcome Trust Sanger Institute”.

Each molecule was assayed on Lu-65 (assay: cells). Conditions: Homo sapiens, Lu-65.
Assay type: functional, cell-based, Homo sapiens
Description: SANGER: Inhibition of human LU-65 cell growth in a cell viability assay.
For `COc1cc2c(Nc3ccc(NC(=O)c4ccccc4)cc3)ncnc2cc1OCCCN1CCOCC1`, the IC50 was greater than 4 µM.

Each molecule was assayed on BXPC-3 (assay: cells). Conditions: Homo sapiens, BXPC-3.
Assay type: functional, cell-based, Homo sapiens
Description: SANGER: Inhibition of human BxPC-3 cell growth in a cell viability assay.
For `COc1cc2c(Nc3ccc(NC(=O)c4ccccc4)cc3)ncnc2cc1OCCCN1CCOCC1`, the IC50 was greater than 4 µM.

The molecules below were run on SBC-1 (assay: cells). Conditions: Homo sapiens, SBC-1.
Assay type: functional, cell-based, Homo sapiens
Description: SANGER: Inhibition of human SBC-1 cell growth in a cell viability assay.
In the case of `COc1cc2c(Nc3ccc(NC(=O)c4ccccc4)cc3)ncnc2cc1OCCCN1CCOCC1`, the IC50 is reported as 1.04 µM.

These molecules were tested on 8505C (assay: cells). Conditions: Homo sapiens, 8505C.
Assay type: functional, cell-based, Homo sapiens
Description: SANGER: Inhibition of human 8505C cell growth in a cell viability assay.
For `COc1cc2c(Nc3ccc(NC(=O)c4ccccc4)cc3)ncnc2cc1OCCCN1CCOCC1`, the IC50 was greater than 4 µM.

The molecules below were run on KY821 (assay: cells). Conditions: Homo sapiens, KY821.
Assay type: functional, cell-based, Homo sapiens
Description: SANGER: Inhibition of human KY821 cell growth in a cell viability assay.
`COc1cc2c(Nc3ccc(NC(=O)c4ccccc4)cc3)ncnc2cc1OCCCN1CCOCC1` showed an IC50 greater than 4 µM.

What follows are molecules tested on MKN-45 (assay: cells). Conditions: Homo sapiens, MKN-45.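 Also: growth inhibition of human MKN-45 cells, measured with a cell viability assay.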
Assay type: functional, cell-based, Homo sapiens
Description: SANGER: Inhibition of human MKN45 cell growth in a cell viability assay.
In the case of `COc1cc2c(Nc3ccc(NC(=O)c4ccccc4)cc3)ncnc2cc1OCCCN1CCOCC1`, the IC50 is reported as greater than 4 µM.

Each molecule was assayed on LN-405 (assay: cells). Conditions: Homo sapiens, LN-405.
Assay type: functional, cell-based, Homo sapiens
Description: SANGER: Inhibition of human LN-405 cell growth in a cell viability assay.
In the case of `COc1cc2c(Nc3ccc(NC(=O)c4ccccc4)cc3)ncnc2cc1OCCCN1CCOCC1`, the IC50 is reported as greater than 4 µM.

Each molecule was assayed on KU812 cell line (assay: cells). Conditions: Homo sapiens, KU812.
Assay type: functional, cell-based, Homo sapiens
Description: SANGER: Inhibition of human KU812 cell growth in a cell viability assay.
In the case of `COc1cc2c(Nc3ccc(NC(=O)c4ccccc4)cc3)ncnc2cc1OCCCN1CCOCC1`, the IC50 is reported as greater than 4 µM.

These molecules were tested on CAL-33 (assay: cells). Conditions: Homo sapiens, CAL-33.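 Also: growth inhibition of CAL-33 cells, read out with a cell viability assay.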
Assay type: functional, cell-based, Homo sapiens
Description: SANGER: Inhibition of human CAL-33 cell growth in a cell viability assay.
Molecule `COc1cc2c(Nc3ccc(NC(=O)c4ccccc4)cc3)ncnc2cc1OCCCN1CCOCC1` has an IC50 of 1.73 µM.

What follows are molecules tested on OCI-AML2 (assay: cells). Conditions: Homo sapiens, OCI-AML2.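 Also: growth inhibition of OCI-AML2 cells, read out with a cell viability assay.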
Assay type: functional, cell-based, Homo sapiens
Description: SANGER: Inhibition of human OCI-AML2 cell growth in a cell viability assay.
`COc1cc2c(Nc3ccc(NC(=O)c4ccccc4)cc3)ncnc2cc1OCCCN1CCOCC1` was tested, and the IC50 was 3.68 µM.

The molecules below were run on FTC-133 (assay: cells). Conditions: Homo sapiens, FTC-133.
Assay type: functional, cell-based, Homo sapiens
`COc1cc2c(Nc3ccc(NC(=O)c4ccccc4)cc3)ncnc2cc1OCCCN1CCOCC1` was tested, and the IC50 was greater than 4 µM.

Each molecule was assayed on ASPC1 (assay: cells). Conditions: Homo sapiens, ASPC1.
Assay type: functional, cell-based, Homo sapiens
Description: SANGER: Inhibition of human AsPC-1 cell growth in a cell viability assay.
Molecule `COc1cc2c(Nc3ccc(NC(=O)c4ccccc4)cc3)ncnc2cc1OCCCN1CCOCC1` has an IC50 greater than 4 µM.

What follows are molecules tested on HO-1-N-1 (assay: cells). Conditions: Homo sapiens, HO-1-N-1.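 Also: growth inhibition of human HO-1-N-1 cells, read out with a cell viability assay.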
Assay type: functional, cell-based, Homo sapiens
Description: SANGER: Inhibition of human HO-1-N-1 cell growth in a cell viability assay.
`COc1cc2c(Nc3ccc(NC(=O)c4ccccc4)cc3)ncnc2cc1OCCCN1CCOCC1` was tested, and the IC50 was 2.15 µM.

The molecules below were run on PC-14 (assay: cells). Conditions: Homo sapiens, PC-14.
Assay type: functional, cell-based, Homo sapiens
Description: SANGER: Inhibition of human PC-14 cell growth in a cell viability assay.
`COc1cc2c(Nc3ccc(NC(=O)c4ccccc4)cc3)ncnc2cc1OCCCN1CCOCC1` gave an IC50 greater than 4 µM.

The molecules below were run on GI-ME-N (assay: cells). Conditions: Homo sapiens, GI-ME-N.
Assay type: functional, cell-based, Homo sapiens
Description: SANGER: Inhibition of human GI-ME-N cell growth in a cell viability assay.
In the case of `COc1cc2c(Nc3ccc(NC(=O)c4ccccc4)cc3)ncnc2cc1OCCCN1CCOCC1`, the IC50 is reported as greater than 4 µM.

Each molecule was assayed on NCI-H2087 (assay: cells). Conditions: Homo sapiens, NCI-H2087.
Assay type: functional, cell-based, Homo sapiens
Description: SANGER: Inhibition of human NCI-H2087 cell growth in a cell viability assay.
`COc1cc2c(Nc3ccc(NC(=O)c4ccccc4)cc3)ncnc2cc1OCCCN1CCOCC1` showed an IC50 greater than 4 µM.

Each molecule was assayed on T98G (assay: cells). Conditions: Homo sapiens, T98G.
Assay type: functional, cell-based, Homo sapiens
Description: SANGER: Inhibition of human T98G cell growth in a cell viability assay.
`COc1cc2c(Nc3ccc(NC(=O)c4ccccc4)cc3)ncnc2cc1OCCCN1CCOCC1` gave an IC50 of 3.95 µM.

What follows are molecules tested on NCI-H1581 (assay: cells). Conditions: Homo sapiens, NCI-H1581.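 Also: cell growth inhibition read out by a viability assay.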
Assay type: functional, cell-based, Homo sapiens
Description: SANGER: Inhibition of human NCI-H1581 cell growth in a cell viability assay.
Work on `COc1cc2c(Nc3ccc(NC(=O)c4ccccc4)cc3)ncnc2cc1OCCCN1CCOCC1` yielded an IC50 of 1.68 µM.

These molecules were tested on CTB-1 (assay: cells). Conditions: Homo sapiens, CTB-1.
Assay type: functional, cell-based, Homo sapiens
Description: SANGER: Inhibition of human CTB-1 cell growth in a cell viability assay.
With `COc1cc2c(Nc3ccc(NC(=O)c4ccccc4)cc3)ncnc2cc1OCCCN1CCOCC1` the IC50 was 1.67 µM.

Each molecule was assayed on NB13 (assay: cells). Conditions: Homo sapiens, NB13.
Assay type: functional, cell-based, Homo sapiens
Description: SANGER: Inhibition of human NB13 cell growth in a cell viability assay.
`COc1cc2c(Nc3ccc(NC(=O)c4ccccc4)cc3)ncnc2cc1OCCCN1CCOCC1` gave an IC50 greater than 4 µM.

The molecules below were run on MZ2-MEL (assay: cells). Conditions: Homo sapiens, MZ2-MEL.
Assay type: functional, cell-based, Homo sapiens
Description: SANGER: Inhibition of human MZ2-MEL cell growth in a cell viability assay.
`COc1cc2c(Nc3ccc(NC(=O)c4ccccc4)cc3)ncnc2cc1OCCCN1CCOCC1` showed an IC50 greater than 4 µM.

These molecules were tested on D-336MG (assay: cells). Conditions: Homo sapiens, D-336MG.
Assay type: functional, cell-based, Homo sapiens
Description: SANGER: Inhibition of human D-336MG cell growth in a cell viability assay.
`COc1cc2c(Nc3ccc(NC(=O)c4ccccc4)cc3)ncnc2cc1OCCCN1CCOCC1` was tested, and the IC50 was greater than 4 µM.

The molecules below were run on NCI-H1437 (assay: cells). Conditions: Homo sapiens, NCI-H1437.
Assay type: functional, cell-based, Homo sapiens
Description: SANGER: Inhibition of human NCI-H1437 cell growth in a cell viability assay.
With `COc1cc2c(Nc3ccc(NC(=O)c4ccccc4)cc3)ncnc2cc1OCCCN1CCOCC1` the IC50 was greater than 4 µM.

The molecules below were run on MDA-MB-453 (assay: cells). Conditions: Homo sapiens, MDA-MB-453.
Assay type: functional, cell-based, Homo sapiens
Description: SANGER: Inhibition of human MDA-MB-453 cell growth in a cell viability assay.
`COc1cc2c(Nc3ccc(NC(=O)c4ccccc4)cc3)ncnc2cc1OCCCN1CCOCC1` gave an IC50 greater than 4 µM.

What follows are molecules tested on UMUC3 (assay: cells). Conditions: Homo sapiens, UMUC3.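 Also: growth inhibition of human UM-UC-3 cells, read out with a cell viability assay.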
Assay type: functional, cell-based, Homo sapiens
Description: SANGER: Inhibition of human UM-UC-3 cell growth in a cell viability assay.
`COc1cc2c(Nc3ccc(NC(=O)c4ccccc4)cc3)ncnc2cc1OCCCN1CCOCC1` was tested, and the IC50 was greater than 4 µM.

The molecules below were run on Huh-7 (assay: cells). Conditions: Homo sapiens, Huh-7.
Assay type: functional, cell-based, Homo sapiens
Description: SANGER: Inhibition of human HuH-7 cell growth in a cell viability assay.
`COc1cc2c(Nc3ccc(NC(=O)c4ccccc4)cc3)ncnc2cc1OCCCN1CCOCC1` gave an IC50 greater than 4 µM.

What follows are molecules tested on D-392MG (assay: cells). Conditions: Homo sapiens, D-392MG.
Assay type: functional, cell-based, Homo sapiens
Work on `COc1cc2c(Nc3ccc(NC(=O)c4ccccc4)cc3)ncnc2cc1OCCCN1CCOCC1` yielded an IC50 greater than 4 µM.

These molecules were tested on SKG-IIIa (assay: cells). Conditions: Homo sapiens, SKG-IIIa.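 Also: cell growth inhibition, read out with a cell viability assay.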
Assay type: functional, cell-based, Homo sapiens
Description: SANGER: Inhibition of human SKG-IIIa cell growth in a cell viability assay.
`COc1cc2c(Nc3ccc(NC(=O)c4ccccc4)cc3)ncnc2cc1OCCCN1CCOCC1` gave an IC50 greater than 4 µM.

What follows are molecules tested on KARPAS-299 (assay: cells). Conditions: Homo sapiens, KARPAS-299.
Assay type: functional, cell-based, Homo sapiens
Description: SANGER: Inhibition of human KARPAS-299 cell growth in a cell viability assay.
Molecule `COc1cc2c(Nc3ccc(NC(=O)c4ccccc4)cc3)ncnc2cc1OCCCN1CCOCC1` has an IC50 greater than 4 µM.

These molecules were tested on A 172 (assay: cells). Conditions: Homo sapiens, A 172.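 Also: growth inhibition of A172 cells, measured with a cell viability readout.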
Assay type: functional, cell-based, Homo sapiens
Description: SANGER: Inhibition of human A172 cell growth in a cell viability assay.
`COc1cc2c(Nc3ccc(NC(=O)c4ccccc4)cc3)ncnc2cc1OCCCN1CCOCC1` was tested, and the IC50 was 0.984 µM.

Each molecule was assayed on CAPAN-1 (assay: cells). Conditions: Homo sapiens, CAPAN-1.
Assay type: functional, cell-based, Homo sapiens
Description: SANGER: Inhibition of human CAPAN-1 cell growth in a cell viability assay.
`COc1cc2c(Nc3ccc(NC(=O)c4ccccc4)cc3)ncnc2cc1OCCCN1CCOCC1` was tested, and the IC50 was greater than 4 µM.

The molecules below were run on NCI-H1304 (assay: cells). Conditions: Homo sapiens, NCI-H1304.
Assay type: functional, cell-based, Homo sapiens
Description: SANGER: Inhibition of human NCI-H1304 cell growth in a cell viability assay.
Work on `COc1cc2c(Nc3ccc(NC(=O)c4ccccc4)cc3)ncnc2cc1OCCCN1CCOCC1` yielded an IC50 greater than 4 µM.

The molecules below were run on TE-1 (assay: cells). Conditions: Homo sapiens, TE-1.
Assay type: functional, cell-based, Homo sapiens
Description: SANGER: Inhibition of human TE-1 cell growth in a cell viability assay.
Molecule `COc1cc2c(Nc3ccc(NC(=O)c4ccccc4)cc3)ncnc2cc1OCCCN1CCOCC1` has an IC50 greater than 4 µM.

What follows are molecules tested on HCC1395 (assay: cells). Conditions: Homo sapiens, HCC1395.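 Also: growth inhibition of HCC1395 cells, read out by a cell viability assay.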
Assay type: functional, cell-based, Homo sapiens
Description: SANGER: Inhibition of human HCC1395 cell growth in a cell viability assay.
For `COc1cc2c(Nc3ccc(NC(=O)c4ccccc4)cc3)ncnc2cc1OCCCN1CCOCC1`, the IC50 was greater than 4 µM.

Each molecule was assayed on GAK (assay: cells). Conditions: Homo sapiens, GAK.
Assay type: functional, cell-based, Homo sapiens
Description: SANGER: Inhibition of human GAK cell growth in a cell viability assay.
With `COc1cc2c(Nc3ccc(NC(=O)c4ccccc4)cc3)ncnc2cc1OCCCN1CCOCC1` the IC50 was greater than 4 µM.

Each molecule was assayed on NCI-H2347 (assay: cells). Conditions: Homo sapiens, NCI-H2347.
Assay type: functional, cell-based, Homo sapiens
Description: SANGER: Inhibition of human NCI-H2347 cell growth in a cell viability assay.
`COc1cc2c(Nc3ccc(NC(=O)c4ccccc4)cc3)ncnc2cc1OCCCN1CCOCC1` was tested, and the IC50 was greater than 4 µM.

What follows are molecules tested on NCI-H358 (assay: cells). Conditions: Homo sapiens, NCI-H358.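 Also: growth inhibition of NCI-H358 human cells, read out with a cell viability assay.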
Assay type: functional, cell-based, Homo sapiens
Description: SANGER: Inhibition of human NCI-H358 cell growth in a cell viability assay.
Work on `COc1cc2c(Nc3ccc(NC(=O)c4ccccc4)cc3)ncnc2cc1OCCCN1CCOCC1` yielded an IC50 greater than 4 µM.

These molecules were tested on RPMI-2650 (assay: cells). Conditions: Homo sapiens, RPMI-2650.
Assay type: functional, cell-based, Homo sapiens
Description: SANGER: Inhibition of human RPMI-2650 cell growth in a cell viability assay.
`COc1cc2c(Nc3ccc(NC(=O)c4ccccc4)cc3)ncnc2cc1OCCCN1CCOCC1` gave an IC50 greater than 4 µM.

The molecules below were run on G-401 (assay: cells). Conditions: Homo sapiens, G-401.
Assay type: functional, cell-based, Homo sapiens
Description: SANGER: Inhibition of human G-401 cell growth in a cell viability assay.
With `COc1cc2c(Nc3ccc(NC(=O)c4ccccc4)cc3)ncnc2cc1OCCCN1CCOCC1` the IC50 was greater than 4 µM.

These molecules were tested on LOX IMVI (assay: cells). Conditions: Homo sapiens, LOX IMVI.
Assay type: functional, cell-based, Homo sapiens
Description: SANGER: Inhibition of human LOXIMVI cell growth in a cell viability assay.
`COc1cc2c(Nc3ccc(NC(=O)c4ccccc4)cc3)ncnc2cc1OCCCN1CCOCC1` showed an IC50 greater than 4 µM.
